| melting point [°C] | Compound |
| --- | --- |
| 70 | CC(OCc1cc2cc(C(F)(F)F)ccc2n1S(=O)(=O)c1ccc2c(c1)OCCO2)C(=O)O (centres undefined) |
| 164 to 165 | CCOC(=O)c1cnc2cn[nH]c2c1Nc1ccccc1 |
| 168 to 169 | O=S(=O)(c1ccc(Cl)cc1)C1(c2cccnc2Cl)CCCCCC1 |
| 186 to 187 | COc1cc(CC(C#N)=CNc2ccccc2)cc(OC)c1NC=O |
| 135 to 136 | Cc1cc(C(=O)NC(C#N)c2ccccc2)n(C)n1 (centres undefined) |
| 149 to 150 | FC(F)(F)c1ccc(C#Cc2ccc(C#Cc3cc4ccccc4s3)s2)cc1 |
| 124 to 125 | S=C(NCC1CCCCC1)NCC1CCCCC1 |
| 119 to 120 | C=CCc1cc2c(c(CC=C)c1OC1CCCCO1)CCC(=O)N2 (centres undefined) |
| 83 to 87 | CSCC(C)(C)N(C(=O)c1c(I)cccc1C(N)=O)c1ccc(Cn2nnn(-c3ccc(C(F)(F)F)cc3)c2=O)cc1C |
| 280 to 282 | COc1ccc(Nc2cc(-c3ccncc3)nc3ccccc23)cc1Cl |
| 150 to 152 | O=C1Nc2ccccc2N(C(=O)CN2CCCC(CN3CCCCC3)C2)c2ccccc21 (centres undefined) |
| 56 to 58 | O=C1CCc2c(OCCCl)cccc21 |
| 141 | COC(=O)C(Oc1cc(-n2c(=O)cc(C(F)(F)F)n(C)c2=O)c(F)cc1Cl)C(=O)OC |
| 243 to 244 | CC(=O)N1CCN(c2nc(Nc3ccc(F)cc3F)c(C(=O)O)cc2F)CC1 |
| 137 to 140 | CCOCc1nc2c(N)nc3ccccc3c2n1NCC(C)C |
| 113 to 114 | COc1ccc2c(c1)C(=O)CC1C2C(O)CC2(C)C(O)CCC12 (centres undefined) |
| 65 to 66 | COc1cc2c(cc1O)CCN(Cc1ccc(OC)c(OC)c1OC)C2 |
| 99 to 101 | CCOc1ccc(C2=NN(C3CCN(S(=O)(=O)c4ccc(C)cc4)CC3)C(=O)[C@@H]3CC=CC[C@H]23)cc1OCC |
| 60 to 65 | O=CC1CCSc2[nH]c3ccccc3c21 (centres undefined) |
| 126 to 129 | COC(=O)c1ccc(C(=O)CCC(=O)c2ccc3c(c2)C(C)(C)CCC3(C)C)cc1 |
| 54 | CCOC(=O)C(C(=O)OC(C)C)=C1SC=CS1 |
| 205 to 206 | N[C@H](C1CCCCC1)C(O)(c1ccc2ccccc2c1)c1ccc2ccccc2c1 |
| 209 to 211 | Ic1ccc2c(c1)ncn2-c1cccc(-n2cccn2)c1 |
| 147 to 149 | Cc1cc2oc(=O)c3c(c2cc1Cl)CC(N1CC2CCCC(C2)C1)NC3 (centres undefined) |

| melting point [°C] | Compound |
| --- | --- |
| 211 to 213 | O=C(NC1CCCCC1)NS(=O)(=O)c1ccc(CCNC(=O)N2Cc3ccccc3C2=O)cc1 |
| 35 to 37 | COC(C)c1cc([N+](=O)[O-])ccc1C (centres undefined) |
| 150 | COc1ccc(NCCNc2ccc([N+](=O)[O-])cc2)cc1 |
| 94.1 to 94.4 | CNC(=O)n1cnc(C)c1Cl |
| 91 to 93 | CC(C)(C)c1cc(C(=O)COc2ccc(C(=O)OCc3ccccc3)c(O)c2)ccc1OCc1ccccc1 |
| 146 to 147 | O=C(/C=C/C=C(c1ccc(Cl)cc1)c1ccc(Cl)cc1)NCCCCc1cccnc1 |
| 98 | COC(=O)C=Cc1ccc(C(=O)NC[C@H](NC(=O)OCc2ccccc2)C(=O)OC(C)(C)C)s1 |
| 130 to 131 | CCN1C(=O)C(C)(C)C(=O)N(C)c2cc(CN(CCN3C(=O)CCc4ccccc43)Cc3cccnc3C)ccc21 |
| 205 to 207 | O=C1c2ccccc2C(=O)N1CCc1ccc(OC2c3ccccc3CCc3ccccc32)cc1 |
| 242 to 244 | Cc1[nH]n(C2CCCC2)c2nc(-c3cccc4cccnc34)nc(=O)c1-2 |
| 163 to 165 | COc1ccc(Oc2cccc(Oc3ccc4c(c3)OCO4)c2C(=O)O)cc1 |
| 299 to 303 | O=C1Nc2cc(Cl)ccc2C1c1ncnc2nn(C3CCCCC3)cc12 (centres undefined) |
| 128 | CC(C)(C)C1COC1(Cn1cncn1)c1ccc(F)cc1 (centres undefined) |
| 177 to 178 | CN1CC(C#CC2CC2)(C(F)(F)F)c2cc(Cl)ccc2NC1=O (centres undefined) |
| 174 to 176 | COc1ccc(Cl)cc1-c1cc(Cl)cc2c1OC(CN)C2 (centres undefined) |
| 129 to 131 | COC(=O)NNC(=S)Cc1ccc2ccccc2c1 |
| 184 to 186 | Cc1c(C)c2c(c(C)c1O)CCC(C)(C1N[C@H](C(=O)O)CS1)O2 (some centres undefined) |
| 138 to 139 | CCOC(=O)c1c(COC(C)=O)[nH]c(=O)n1C(C)=O |
| 166 to 168 | COc1cc(-c2ccc(S(C)(=O)=O)cc2)c(-c2ccc(F)cc2)c(C(F)(F)F)n1 |
| 144 to 145 | COc1c(Cl)ccc(Cl)c1C(=O)NN |
| 295 to 298 | NC(=O)C1CN(c2c(F)cc3c(=O)c(C(=O)O)cn(C4CC4)c3c2F)C1 |
| 168 to 170 | CC1CCN(Cc2cc(COc3cccc4c3CN(C3CCC(=O)NC3=O)C4=O)on2)CC1 (centres undefined) |
| 113 to 114 | CCC(C(=O)O)N(C(=O)c1cn(-c2ccc(OC)cc2)nc1C)c1ccc(OCC(C)(C)C)c(C#N)c1 (centres undefined) |
| 100 to 104 | Cc1cccc(O[C@@H]2CN(Cc3ccccc3)C[C@H]2O)c1C (relative stereo) |

| melting point [°C] | Compound |
| --- | --- |
| 199 to 200 | COC(=O)CCCOc1ccc2c(c1OC)N=C(C=C(O)c1cccnc1)N1CCN=C21 |
| 123 to 129 | O=c1c2c(Cl)cc(Cl)cc2n(Cc2ccccc2)c(=O)n1Cc1cccc(Cl)c1 |
| 150 to 151 | CN(C)c1c(CS(=O)(=O)C2=NOC(C)(C)C2)c(C(F)(F)F)nn1-c1ccccc1 |
| 122 to 124 | O=[N+]([O-])c1ccc2nnn(OS(=O)(=O)c3ccccc3)c2c1 |
| 110 | O=C(Cc1ccc(-n2ccnc2)cc1)NOc1ccccn1 |
| 136 | CC(=O)c1ccc(N2CCN(c3cccc(C)c3)CC2)nn1 |
| 99 to 101 | COC(=O)Cc1cc2c(cc1CC1NCCc3cc(OC)c(OC)cc31)OCO2 (centres undefined) |
| 48 | CC(C)(C)OC(=O)N1CC[C@H](O)[C@H](F)C1 (relative stereo) |
| 90 to 94 | COc1cc2c(cc1[N+](=O)[O-])C(C)CC1c3ccccc3CC1(C)C2 (centres undefined) |
| 84 to 85 | C#CCOc1c(Cl)cc(Cl)cc1C(=O)NCC1CCCN1C1CCCCC1 (centres undefined) |
| 189 to 190 | CCOC(=O)c1c2n(c3c(Br)c(N4CCN(C)CC4)c(F)cc3c1=O)C(C)S2 (centres undefined) |
| 72 to 74 | COC(=O)c1cc2n(c1)CCCC2 |
| 183 | Nc1cc(Cl)cc(NCCO)c1[N+](=O)[O-] |
| 193 to 194 | O=C(c1cc(C(F)(F)F)nc2c(Cl)cc(Cl)cc12)c1cc(C(F)(F)F)nc2c(Cl)cc(Cl)cc12 |
| 117 to 118 | Cc1noc(=O)c2ccc(NC(=O)C(=O)CC3(c4cccc(C(F)(F)F)c4F)CC3)cc12 |
| 146 to 147 | CONS(=O)(=O)c1ccc(Cl)c(Cl)c1 |
| 46 | CC1(C)Oc2c(Cl)cc(Cl)cc2[C@@H](Br)[C@@H]1O (relative stereo) |
| 186 to 189 | CCCc1nc2c(N)nc3cc(OCCOCCOc4ccc5c(c4)nc(N)c4nc(CCC)sc45)ccc3c2s1 |
| 235 | Cn1c(=O)n(CCCC(NS(=O)(=O)c2ccc(-c3ccc(Cl)cc3)cc2)C(=O)NO)c(=O)c2ccccc21 (centres undefined) |
| 77 to 80 | Cc1cnccc1CO |
| 239 | COc1cc(Nc2nccc(-c3ccc(NC(C)=O)cc3)n2)cc(OC)c1OC |
| 252 to 253 | O=C(NC(Cc1ccc(OCc2ccccc2)cc1)C(=O)O)c1cn2cc(-c3ccc(Cl)cc3)cnc2n1 (centres undefined) |
| 116 to 117 | CN1C(=O)c2ccccc2CC1c1ccc(C(C)(C)C)cc1 (centres undefined) |
| 102 to 104 | NC(=O)c1ncccc1CCc1cccc(F)c1 |

| melting point [°C] | Compound |
| --- | --- |
| 134 to 137 | Cc1ccc([N+](=O)[O-])cc1CNC(=O)c1ccccc1 |
| 207 to 209 | CN(C)S(=O)(=O)c1cn(C)c2cc(Cl)ccc2c1=O |
| 159 to 160 | CCCn1nc(C(C)C)c(C(=O)OCC)c1Cc1ccc(-c2ccccc2S(=O)(=O)NC(=O)c2ccccc2)cc1 |
| 241 to 242 | CC(C)c1cc(O)cc(C(C)C)c1NC(=O)CN1CCN(CCSc2nc3ccccc3[nH]2)CC1 |
| 74.5 to 75 | ON=C(Cl)c1ccc(F)cc1 |
| 223 to 226 | NC(=O)c1ccc(Nc2ccncc2)cc1 |
| 67 to 68 | CNC(=S)NCCCSc1nccs1 |
| 88 to 91.5 | CN(C)Cc1cnc(NC(=O)[C@H](CC2CCCC2)c2ccc(S(C)(=O)=O)c(Cl)c2)cn1 |
| 116 to 118 | OC(Cc1ccc(Cl)cc1)(Cn1cncn1)Cn1cncn1 |
| > 240 | CCCc1ccc2c(=O)cc(C(=O)O)[nH]c2c1 |
| 45 to 46 | S=C(Nc1ccccc1)c1ccccn1 |
| 36.7 to 39.4 | COCC(=O)c1c(Cl)ccc(F)c1Cl |
| 198 to 200 | [N-]=[N+]=NCC1=NN=C(c2ccc([N+](=O)[O-])cc2)c2cc3c(cc2C1)OCO3 |
| 159 to 160 | CC(C)(C)OC(=O)NC1CCCCc2cc(OCC3CCCCC3)c(C(=O)O)cc21 (centres undefined) |
| 81 to 84 | N#CCCNC1CCCC1 |
| 161 to 164 | COc1cc(OC)nc(NC(=O)NS(=O)(=O)Oc2ccccc2-c2nnco2)n1 |
| 85 to 87 | O=C(O)CCCCCCCCC(=O)c1ccccc1O |
| 132 to 134 | CCOC(=O)CC12C(OS(=O)(=O)C(F)(F)F)=CC(C(C)CCCC(C)C)C1(C)CCC1=C2CCC2CC(OC(=O)c3ccccc3)CCC12C (centres undefined) |
| 187 to 188 | CN1CCN(c2cccc3c2C[C@H](NC(=O)c2csc(-c4ccncc4)n2)CC3)CC1 |
| 254 to 255 | Cc1cc(O)nc2c1c(C)nn2-c1ccccn1 |
| 114 to 115 | O=C1c2ccccc2C(=O)N1CC(Cl)(CCl)c1ccccc1 (centres undefined) |

| Compound | melting point [°C] |
| --- | --- |
| CNC(=O)ON=C1SCOC1C (centres undefined) | 70 to 71.5 |
| O=C(CCc1ccccc1)CS(=O)(=O)C(c1ccc(Cl)cc1)c1ccc(Cl)cc1 | 106 to 107 |
| CCN(CC)C(=O)c1ccc(C(=C2CCNCC2)c2cccc3cccnc23)cc1 | > 170 |
| NC1Cc2cccc3[nH]c(=O)n(c23)C1 (centres undefined) | > 300 |
| CC(C)(N)Cc1ccc(NS(=O)(=O)c2ccccc2)cc1 | 180 to 181 |
| CCc1cc(C(=O)c2ccccc2Cl)c(-n2c(C)nnc2CNC(=O)c2ccccc2)s1 | 160 to 161 |

Reference: a melting point compilation (Tetko et al.; mined from patent text by program, amines drawn as free bases though some values may be those of a salt)
